Experimental data from patent US9980943B2, “Methods of treating muscular dystrophy” (BOARD OF REGENTS OF THE NEVADA SYSTEM OF HIGHER EDUCATION, …, priority 2013, dated 2018).

Assays:
Type in all cases: cell-based, mouse
[1] = test system: β-galactosidase in CMV-LacZ C2C12 myotubes; assay: CMV-LacZ secondary screen in C2C12 myotubes (β-Gal stabilizing assay); settings: for CMV-LACZ in Myotubes, value relative to DMSO: SU9516 analogs, C2C12 CMV-LacZ, N=2; for CMV-LACZ in Myotubes, signal relative to DMSO: C2C12 CMV-LacZ myotubes, fold relative to DMSO
How it was run: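 β-gal stabilization was measured in C2C12 myoblasts or myotubes stably transfected with a CMV-driven LacZ construct, using the FDG β-gal assay. Compounds were tested in dose-response at 0.5, 1, 5, 10, 20 and 40 μM, with two replicates per point.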

[2] = test system: β-galactosidase in CMV-LacZ C2C12 myoblasts; assay: CMV-LacZ secondary screen in C2C12 myoblasts (β-Gal stabilizing assay); settings: for CMV-LACZ in Myoblasts, value relative to DMSO: SU9516 analogs, C2C12 CMV-LacZ, N=2; for CMV-LACZ in Myoblasts (β-galactosidase activity relative to DMSO): CMV-LacZ C2C12 myoblasts
How it was run: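 C2C12 myoblasts stably carrying a linearized CMV-driven LacZ construct, clone chosen by β-gal level in the myoblast FDG assay. Compounds tested in 96-well dose-response at 0.5, 1, 5, 10, 20 and 40 μM, N=2 replicates per point, to detect β-gal stabilization.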

[3] = test system: α7 integrin (LacZ reporter in α7+/LacZ myotubes); assay: Myotube α7 integrin FDG assay (Burkin assay in myotubes, 96-well); settings: for Burkin Assay in Myotubes, value relative to DMSO: SU9516 analogs, 96-well, N=3-6
[4] = test system: α7 integrin (LacZ reporter in α7βgal+/− myoblasts); assay: Myoblast α7+/LacZ integrin FDG assay (Burkin assay in myoblasts, 96-well); settings: 96-well; for Burkin Assay in Myoblasts, value relative to DMSO: SU9516 analogs, N=3-6; for Burkin Assay in Myoblasts, signal relative to DMSO: α7+/LacZ myoblasts

Structure (SMILES): CC(C)Oc1ccc(C(=O)/C=C2/C(=O)Nc3ccccc32)cc1 [MLS001214276-01]
- CMV-LACZ in Myotubes, value relative to DMSO ([1]; 0.5 uM): 0.7733
- CMV-LACZ in Myotubes, value relative to DMSO ([1]; 1 uM): 0.9141
- CMV-LACZ in Myotubes, value relative to DMSO ([1]; 5 uM): 2.0151
- CMV-LACZ in Myotubes, value relative to DMSO ([1]; 10 uM): 11.1000
- CMV-LACZ in Myotubes, value relative to DMSO ([1]; 20 uM): 0.5259
- CMV-LACZ in Myotubes, value relative to DMSO ([1]; 40 uM): 0.4976
- CMV-LACZ in Myoblasts, value relative to DMSO ([2]; 0.5 uM): 0.9516
- CMV-LACZ in Myoblasts, value relative to DMSO ([2]; 1 uM): 0.8731
- CMV-LACZ in Myoblasts, value relative to DMSO ([2]; 5 uM): 1.3014
- CMV-LACZ in Myoblasts, value relative to DMSO ([2]; 10 uM): 1.2231
- CMV-LACZ in Myoblasts, value relative to DMSO ([2]; 20 uM): 1.2922
- CMV-LACZ in Myoblasts, value relative to DMSO ([2]; 40 uM): 0.1781
- Burkin Assay in Myotubes, value relative to DMSO ([3]; 0.5 uM): 1.162
- Burkin Assay in Myotubes, value relative to DMSO ([3]; 1 uM): 1.197
- Burkin Assay in Myotubes, value relative to DMSO ([3]; 5 uM): 0.9019
- Burkin Assay in Myotubes, value relative to DMSO ([3]; 10 uM): 0.6945
- Burkin Assay in Myotubes, value relative to DMSO ([3]; 20 uM): 0.2362
- Burkin Assay in Myotubes, value relative to DMSO ([3]; 40 uM): 0.07736
- Burkin Assay in Myoblasts, value relative to DMSO ([4]; 0.5 uM): 1.328
- Burkin Assay in Myoblasts, value relative to DMSO ([4]; 1 uM): 1.222
- Burkin Assay in Myoblasts, value relative to DMSO ([4]; 5 uM): 0.6234
- Burkin Assay in Myoblasts, value relative to DMSO ([4]; 10 uM): 0.3235
- Burkin Assay in Myoblasts, value relative to DMSO ([4]; 20 uM): 0.2022
- Burkin Assay in Myoblasts, value relative to DMSO ([4]; 40 uM): 0.02694

Structure (SMILES): CCOc1ccccc1NC(=O)COC(=O)CNS(=O)(=O)c1ccc(C)cc1 [MLS000393567-01]
- CMV-LACZ in Myotubes, signal relative to DMSO ([1]; 0.5 uM): 1.0400
- CMV-LACZ in Myotubes, signal relative to DMSO ([1]; 1 uM): 0.9524
- CMV-LACZ in Myotubes, signal relative to DMSO ([1]; 5 uM): 0.9322
- CMV-LACZ in Myotubes, signal relative to DMSO ([1]; 10 uM): 0.9858
- CMV-LACZ in Myotubes, signal relative to DMSO ([1]; 20 uM): 1.0160
- CMV-LACZ in Myotubes, signal relative to DMSO ([1]; 40 uM): 0.9100
- CMV-LACZ in Myoblasts (β-galactosidase activity relative to DMSO) ([2]; 0.5 uM): 1.2117
- CMV-LACZ in Myoblasts (β-galactosidase activity relative to DMSO) ([2]; 1 uM): 1.1373
- CMV-LACZ in Myoblasts (β-galactosidase activity relative to DMSO) ([2]; 5 uM): 0.6593
- CMV-LACZ in Myoblasts (β-galactosidase activity relative to DMSO) ([2]; 10 uM): 0.8148
- CMV-LACZ in Myoblasts (β-galactosidase activity relative to DMSO) ([2]; 20 uM): 1.0175
- CMV-LACZ in Myoblasts (β-galactosidase activity relative to DMSO) ([2]; 40 uM): 1.1319
- Burkin Assay in Myotubes, α7 integrin LacZ reporter signal relative to DMSO ([3]; 0.5 uM): 0.8882
- Burkin Assay in Myotubes, α7 integrin LacZ reporter signal relative to DMSO ([3]; 1 uM): 0.9953
- Burkin Assay in Myotubes, α7 integrin LacZ reporter signal relative to DMSO ([3]; 5 uM): 0.9065
- Burkin Assay in Myotubes, α7 integrin LacZ reporter signal relative to DMSO ([3]; 10 uM): 0.8857
- Burkin Assay in Myotubes, α7 integrin LacZ reporter signal relative to DMSO ([3]; 20 uM): 0.8607
- Burkin Assay in Myotubes, α7 integrin LacZ reporter signal relative to DMSO ([3]; 40 uM): 0.9237
- Burkin Assay in Myoblasts, signal relative to DMSO ([4]; 0.5 uM): 1.032
- Burkin Assay in Myoblasts, signal relative to DMSO ([4]; 1 uM): 1.051
- Burkin Assay in Myoblasts, signal relative to DMSO ([4]; 5 uM): 0.9724
- Burkin Assay in Myoblasts, signal relative to DMSO ([4]; 10 uM): 0.9325
- Burkin Assay in Myoblasts, signal relative to DMSO ([4]; 20 uM): 0.8334
- Burkin Assay in Myoblasts, signal relative to DMSO ([4]; 40 uM): 0.8705

Structure (SMILES): CCCS(=O)(=O)c1nc(S(=O)(=O)c2ccc(C)cc2)c(N2CCCC2)s1 [MLS000113985-01]
- CMV-LACZ in Myotubes, signal relative to DMSO ([1]; 0.5 uM): 1.0629
- CMV-LACZ in Myotubes, signal relative to DMSO ([1]; 1 uM): 1.0638
- CMV-LACZ in Myotubes, signal relative to DMSO ([1]; 5 uM): 1.0031
- CMV-LACZ in Myotubes, signal relative to DMSO ([1]; 10 uM): 1.0241
- CMV-LACZ in Myotubes, signal relative to DMSO ([1]; 20 uM): 1.0541
- CMV-LACZ in Myotubes, signal relative to DMSO ([1]; 40 uM): 1.0482
- CMV-LACZ in Myoblasts (β-galactosidase activity relative to DMSO) ([2]; 0.5 uM): 0.9809
- CMV-LACZ in Myoblasts (β-galactosidase activity relative to DMSO) ([2]; 1 uM): 1.0049
- CMV-LACZ in Myoblasts (β-galactosidase activity relative to DMSO) ([2]; 5 uM): 1.0836
- CMV-LACZ in Myoblasts (β-galactosidase activity relative to DMSO) ([2]; 10 uM): 0.9187
- CMV-LACZ in Myoblasts (β-galactosidase activity relative to DMSO) ([2]; 20 uM): 0.2126
- CMV-LACZ in Myoblasts (β-galactosidase activity relative to DMSO) ([2]; 40 uM): 0.1841
- Burkin Assay in Myotubes, α7 integrin LacZ reporter signal relative to DMSO ([3]; 0.5 uM): 0.9882
- Burkin Assay in Myotubes, α7 integrin LacZ reporter signal relative to DMSO ([3]; 1 uM): 1.037
- Burkin Assay in Myotubes, α7 integrin LacZ reporter signal relative to DMSO ([3]; 5 uM): 0.9919
- Burkin Assay in Myotubes, α7 integrin LacZ reporter signal relative to DMSO ([3]; 10 uM): 0.9925
- Burkin Assay in Myotubes, α7 integrin LacZ reporter signal relative to DMSO ([3]; 20 uM): 0.7655
- Burkin Assay in Myotubes, α7 integrin LacZ reporter signal relative to DMSO ([3]; 40 uM): 0.6679
- Burkin Assay in Myoblasts, signal relative to DMSO ([4]; 0.5 uM): 1.065
- Burkin Assay in Myoblasts, signal relative to DMSO ([4]; 1 uM): 1.018
- Burkin Assay in Myoblasts, signal relative to DMSO ([4]; 5 uM): 0.7898
- Burkin Assay in Myoblasts, signal relative to DMSO ([4]; 10 uM): 0.4804
- Burkin Assay in Myoblasts, signal relative to DMSO ([4]; 20 uM): 0.1779
- Burkin Assay in Myoblasts, signal relative to DMSO ([4]; 40 uM): 0.122
